Values of other authors, collected in US20150024025A1, “ALIGNED N[…] AXONAL RE[…] SPINAL CORD INJURY OR SURGERY” (THE UAB RESEARCH FOUNDATION, priority 2012, published 2015).

System: spinal cord injury

chondroitinase ABC
axonal repair and regeneration in vivo after spinal cord injury: promotes axonal repair and regeneration
